Patent publication US20140066369A1, “Modulators Of The GPR119 Receptor And The Treatment Of Disorders Related Thereto” (ARENA PHARMACEUTICALS, INC., priority 2011, published 2014)

Legend:
hGPR119 = biological target: T1, hGPR119 (Homo sapiens, UniProt Q8TDV5); test: HTRF assay for direct cAMP measurement in CHO-K1 cells stably expressing the GPR119 receptor; assay type: cell-based
T1 construct: expressed in transfected cells
T1 sequence (Q8TDV5 2-335): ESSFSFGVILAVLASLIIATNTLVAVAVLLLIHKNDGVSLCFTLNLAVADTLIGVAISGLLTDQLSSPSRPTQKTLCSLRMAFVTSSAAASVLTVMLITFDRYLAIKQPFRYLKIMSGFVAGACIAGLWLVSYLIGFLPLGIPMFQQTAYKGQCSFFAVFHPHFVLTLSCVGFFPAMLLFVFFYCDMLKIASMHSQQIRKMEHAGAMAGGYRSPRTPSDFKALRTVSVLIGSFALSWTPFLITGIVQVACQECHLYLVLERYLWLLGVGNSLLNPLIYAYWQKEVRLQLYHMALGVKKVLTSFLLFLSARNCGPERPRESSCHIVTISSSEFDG
Method: GPR119 agonists were evaluated in an HTRF® cAMP detection assay (Cisbio, cAMP Dynamic 2 Assay Kit; #62AM4PEJ) according to the manufacturer's instructions using CHO-K1 cells stably expressing the GPR119 receptor. CHO-K1 cells were transduced with a lentiviral vector encoding the nucleotide sequence of GPR119 (NCBI mRNA and protein reference sequences: NM_178471.2 & NP_848566). The N-terminus of the GPR119 nucleotide sequence was modified to replace the first, methionine-coding, codon with a nucleotide sequence coding for a standard, nine amino acid, hemagglutinin tag. Following transduction, cells expressing the GPR119 receptor were isolated and a single clone was isolated following standard dilution-cloning procedures. On the day of the assay, cultured CHO-GPR119 cells were harvested, suspended in assay buffer and plated into 384-well assay plates (PerkinElmer® Proxiplate® #6008280) at a density of 2,000 cells per well. A cAMP standard curve was added to each plate. Test compounds were dissolved in DMSO, serially diluted in DMSO and then diluted in assay buffer before addition to the cells. Test compounds were evaluated in triplicate, using 10-point, 5-fold serial dilutions starting at 10 μM. The final DMSO concentration in the assay was 0.5%. Compounds and cells were incubated for 1 h at room temperature and then detection reagents were added to each well (cAMP-D2 in cell lysis buffer, followed by europium cryptate-labeled anti-cAMP antibody). Plates were then incubated at room temperature for 1 h prior to reading. Time-resolved fluorescence measurements were collected on PerkinElmer Envision™ or BMG Pherastar™ microplate readers. The compound N-(2-fluoro-4-(methylsulfonyl) phenyl)-6-(4-(3-isopropyl-1,2,4-oxadiazol-5-yl)piperidin-1-yl)-5-nitropyrimidin-4-amine was used as a positive control in each runset while assay buffer containing 0.5% DMSO was used as the negative control. The HTRF® assay was used to determine EC50 values for GPR119 agonists.

male 129SVE mice [1] = test: Oral glucose tolerance test (oGTT), glucose homeostasis in male 129SVE mice; assay type: in vivo
Method: Male 129SVE mice (approximately 8 weeks old) were fasted for 18 h and randomly grouped (n=6) to receive a GPR119 agonist (Compound 17) at 3 or 10 mg/kg (mg/kg body weight). The compound was delivered orally via a gavage needle (p.o., 4 mL/kg) 30 minutes prior to glucose bolus (3 g/kg) (time=−30 min in FIG. 1), with a separate group receiving vehicle (20% hydroxypropyl-beta-cyclodextrin (HPCD)) as control. At time 0 min the glucose bolus was administered. Levels of blood glucose were assessed using a glucometer (One-Touch Ultra™, LifeScan) at time −30 min (prior to compound administration), at 0 min (at time when glucose bolus was given), and at 20, 40, 60, 120 min post glucose bolus. Plasma glucose levels (Table B) and the glucose excursion curve (FIG. 1) are shown. The reduction in the glucose excursion area under the curve (AUC) from −30 to 120 min in GPR119 agonist-treated animals relative to vehicle is shown in FIG. 2.

male 129SVE mice [2] = test: GIP release in male 129SVE mice (plasma total GIP, ELISA); assay type: in vivo; details: 3 or 30 mg/kg p.o.; blood sample after 45 min
Method: Male 129SVE mice (approximately 8 weeks old) were fasted for 18 h and randomly grouped (n=6) to receive a GPR119 agonist (Compound 17) at 3 or 30 mg/kg. Compound 17 was delivered orally via a gavage needle (p.o., 4 mL/kg), and after 45 min a blood sample was collected to determine plasma total GIP levels. A separate control group received vehicle (PET (80% PEG: 10% Ethanol: 10% Tween80™)). Plasma GIP levels were determined using a GIP (total) ELISA kit from Millipore.

C[C@@H](OC(=O)N1CCN([C@H]2CC[C@H](COc3ccc(-n4cnnn4)cc3F)CC2)CC1)C(F)(F)F [Compound 44, (R)-1,1,1-Trifluoropropan-2-yl 4-((1r,4R)-4-((2-fluoro-4-(1H-tetrazol-1-yl)phenoxy)methyl)cyclohexyl) piperazine-1-carboxylate]
EC50 (hGPR119): 22.2 nM

Cc1nc(S(C)(=O)=O)ccc1OC[C@H]1CC[C@H](N2CCN(c3ncc(C(F)(F)F)cn3)C[C@@H]2C)CC1 [Compound 26, 2-((S)-3-Methyl-4-((1r,4S)-4-((2-methyl-6-(methylsulfonyl)pyridin-3-yloxy)methyl)cyclohexyl)piperazin-1-yl)-5-(trifluoromethyl)pyrimidine]
EC50 (hGPR119): 600 nM

CN(C)C(=O)c1ccc(OC[C@H]2CC[C@H](N3CCN(C(=O)OC(C)(C)C)CC3)CC2)c(F)c1 [Compound 38, tert-Butyl 4-((1r,4r)-4-((4-(dimethylcarbamoyl)-2-fluorophenoxy)methyl)cyclohexyl)piperazine-1-carboxylate]
EC50 (hGPR119): 219 nM

CS(=O)(=O)c1ccc(OC[C@H]2CC[C@H](N3CCN(c4ncc(Cl)cn4)CC3)CC2)c(F)c1 [Compound 17, 5-Chloro-2-(4-((1r,4r)-4-((2-fluoro-4-(methylsulfonyl)phenoxy)methyl)cyclohexyl)piperazin-1-yl)pyrimidine]
Plasma Glucose, Mean (male 129SVE mice [1]; 3 mg/kg p.o., 20 min post glucose bolus): 263.5 mg/dL | Plasma Glucose, Mean (male 129SVE mice [1]; 3 mg/kg p.o., 40 min post glucose bolus): 304.8333 mg/dL | Plasma Glucose, Mean (male 129SVE mice [1]; 3 mg/kg p.o., 60 min post glucose bolus): 247.6667 mg/dL | Plasma Glucose, Mean (male 129SVE mice [1]; 3 mg/kg p.o., 120 min post glucose bolus): 166.3333 mg/dL | Plasma Glucose, Mean (male 129SVE mice [1]; 3 mg/kg p.o., time relative to glucose bolus 0 min): 88.0 mg/dL | Plasma Glucose, Mean (male 129SVE mice [1]; 3 mg/kg p.o., time relative to glucose bolus −30 min (prior to compound administration), oGTT, glucose 3 g/kg): 67.33 mg/dL | Plasma Glucose, Mean (male 129SVE mice [1]; 10 mg/kg p.o., 20 min post glucose bolus): 203.8333 mg/dL | Plasma Glucose, Mean (male 129SVE mice [1]; 10 mg/kg p.o., 40 min post glucose bolus): 234.8333 mg/dL | Plasma Glucose, Mean (male 129SVE mice [1]; 10 mg/kg p.o., 60 min post glucose bolus): 186.1667 mg/dL | Plasma Glucose, Mean (male 129SVE mice [1]; 10 mg/kg p.o., 120 min post glucose bolus): 167.3333 mg/dL | Plasma Glucose, Mean (male 129SVE mice [1]; 10 mg/kg p.o., time relative to glucose bolus 0 min): 96.33 mg/dL | Plasma Glucose, Mean (male 129SVE mice [1]; 10 mg/kg p.o., time relative to glucose bolus −30 min (prior to compound administration), oGTT, glucose 3 g/kg): 68.5 mg/dL | Effect on blood glucose after challenge with glucose (male 129SVE mice [1]; 3 or 10 mg/kg p.o., 30 minutes prior to glucose bolus, relative to vehicle): lowered blood glucose | Effect on GIP release (plasma total GIP) (male 129SVE mice [2]): stimulated the release of GIP | EC50 (hGPR119): 51.8 nM

CS(=O)(=O)c1ccc(OC[C@H]2CC[C@H](N3CCN(c4nc(C(F)(F)F)no4)CC3)CC2)c(F)c1 [Compound 64, 5-(4-((1r,4r)-4-((2-Fluoro-4-(methylsulfonyl)phenoxy)methyl)cyclohexyl)piperazin-1-yl)-3-(trifluoromethyl)-1,2,4-oxadiazole]
EC50 (hGPR119): 13.7 nM

CCc1cnc(N2CCN([C@H]3CC[C@H](COc4ccc(S(C)(=O)=O)cc4)CC3)CC2)nc1 [Compound 5, 5-Ethyl-2-(4-((1r,4r)-4-((4-(methylsulfonyl)phenoxy)methyl)cyclohexyl)piperazin-1-yl)pyrimidine]
EC50 (hGPR119): 106 nM

N#Cc1ccc(OC[C@H]2CC[C@H](N3CCN(c4ncc(C(F)(F)F)cn4)CC3)CC2)cc1 [Compound 23, 4-(((1r,4r)-4-(4-(5-(Trifluoromethyl)pyrimidin-2-yl)piperazin-1-yl)cyclohexyl)methoxy) benzonitrile]
EC50 (hGPR119): 1380 nM

C[C@@H]1CN(c2ncc(Cl)cn2)CCN1[C@H]1CC[C@H](COc2ccc(S(C)(=O)=O)cc2F)CC1 [Compound 31, 5-Chloro-2-((R)-4-((1r,4R)-4-((2-fluoro-4-(methylsulfonyl)phenoxy)methyl)cyclohexyl)-3-methylpiperazin-1-yl)pyrimidine]
EC50 (hGPR119): 70.1 nM
